Structures are written as SMILES.

Our source for the IC50 values is patent US20170119776A1, “CHIRAL 2,5-DISUBSTITUTED CYCLOPENTANECARBOXYLIC ACID DERIVATIVES AND USE THEREOF” (BAYER PHARMA AKTIENGESELLSCHAFT, priority 2014, published 2017).

Common to all, as to assay type: biochemical
One test deals with T1, MMP-14 (Homo sapiens, UniProt P50281).
T1 construct: purchased R&D Systems 918-MP
Description: In vitro MMP-14 inhibition test. From the text:
(§1) The activity strength of the compounds according to the invention towards other MMPs (and therefore their selectivity) is likewise ascertained in in vitro inhibition tests. The MMP-mediated amidolytic cleavage of a suitable peptide substrate also leads here to a fluorescent light increase. The signal intensity of the fluorescent light is directly proportional to the enzyme activity. The active concentration of a test compound at which half of the enzyme is inhibited (50% signal intensity of the fluorescent light) is given as IC50 value.
Recombinant MMP-14 (R&D Systems, 918-MP) is enzymatically activated in accordance with the manufacturer's instructions using recombinant furin (R&D Systems, 1503-SE). 1 μl of the test compound to be analysed (as a solution in DMSO, suitable concentrations e.g. 1 nM to 30 μM) is pipette into 24 μl of activated enzyme (final concentration e.g. 0.5 nM) in reaction buffer (50 mM Tris/HCl pH 7.5, 10 mM CaCl2, 150 mM NaCl, 0.05% Brij®-35) in a white 384-hole microtiter plate (MTP). The enzymatic reaction is started by adding the intramolecularly quenched substrate Mca-Lys-Pro-Leu-Gly-Leu-Dpa(Dnp)-Ala-Arg-NH2 (final concentration e.g. 5 μM; R&D Systems, ES-010), such that a total test volume of 50 μl results. The progress of the MMP-14 reaction is measured by measuring the fluorescence intensity (excitation 320 nm, emission 410 nm) over a suitable period (e.g. over 120 min at a temperature of 32° C.).
(§2) The IC50 values were determined for racemates and enantiomers from differently generated DMSO stock solutions. Whereas an automatically produced DMSO stock solution from the internal substance logistics was used for racemates by means of a standard method, in the case of enantiomers a freshly produced, manually prepared DMSO stock solution was used in each case for a more precise direct comparison of the enantiomers with one another.

The target in a further test is T2, MMP-7 (Homo sapiens, UniProt P09237).
T2 construct: purchased R&D Systems 907-MP
T2 sequence (P09237 95-267): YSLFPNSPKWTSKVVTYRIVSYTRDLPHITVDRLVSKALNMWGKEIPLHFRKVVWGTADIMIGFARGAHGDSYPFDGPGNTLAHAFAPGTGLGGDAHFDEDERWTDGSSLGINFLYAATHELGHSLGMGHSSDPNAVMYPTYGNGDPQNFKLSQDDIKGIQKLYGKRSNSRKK
Nature of the test: In vitro MMP-7 inhibition test.
Description: as §1
(§3) Recombinant MMP-7 (R&D Systems, 907-MP) is chemically activated in accordance with the manufacturer's instructions using APMA. 1 μl of the test compound to be analysed (as a solution in DMSO, suitable concentrations e.g. 1 nM to 30 μM) is pipette into 24 μl of activated enzyme (final concentration e.g. 0.5 nM) in reaction buffer (50 mM Tris/HCl pH 7.5, 10 mM CaCl2, 150 mM NaCl, 0.05% Brij®-35) in a white 384-hole microtiter plate (MTP). The enzymatic reaction is started by adding the intramolecularly quenched substrate Mca-Pro-Leu-Gly-Leu-Dpa(Dnp)-Ala-Arg-NH2 (final concentration e.g. 10 μM; R&D Systems, ES-001), such that a total test volume of 50 μl results. The progress of the MMP-7 reaction is measured by measuring the fluorescence intensity (excitation 320 nm, emission 410 nm) over a suitable period (e.g. over 120 min at a temperature of 32° C.).
as §2

In another test the target is T3, MMP-10 (Homo sapiens, UniProt P09238).
T3 construct: purchased R&D Systems 910-MP
Description: In vitro MMP-10 inhibition test.
Description: as §1
as §3, with “MMP-10” for “MMP-7”, “910-MP)” for “907-MP)”, “2” for “0.5”, “Mca-Arg-Pro-Lys-Pro-Val-Glu-Nval-Trp-Arg-Lys(Dnp)-NH2” for “Mca-Pro-Leu-Gly-Leu-Dpa(Dnp)-Ala-Arg-NH2”, “ES-002),” for “ES-001),”
as §2

Another test deals with T4, MMP-1 (Homo sapiens, UniProt P03956).
T4 construct: purchased R&D Systems 901-MP
T4 sequence (P03956 100-469): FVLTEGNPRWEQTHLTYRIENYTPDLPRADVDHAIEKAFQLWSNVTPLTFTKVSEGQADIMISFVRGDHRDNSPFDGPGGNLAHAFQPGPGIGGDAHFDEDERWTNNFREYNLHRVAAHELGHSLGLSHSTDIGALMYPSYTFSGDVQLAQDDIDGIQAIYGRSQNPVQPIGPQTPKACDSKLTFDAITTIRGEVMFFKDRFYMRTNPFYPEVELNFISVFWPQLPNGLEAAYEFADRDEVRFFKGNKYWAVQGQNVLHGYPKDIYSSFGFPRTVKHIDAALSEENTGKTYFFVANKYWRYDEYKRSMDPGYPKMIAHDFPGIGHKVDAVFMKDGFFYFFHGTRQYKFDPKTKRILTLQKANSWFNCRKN
Description: In vitro MMP-1 inhibition test.
Description: as §1
as §3, with “MMP-1” for “MMP-7”, “901-MP)” for “907-MP)”, “instructions by” for “instructions”, “pipetted” for “pipette”, “2” for “0.5”
as §2

T3 sequence (P09238 99-476): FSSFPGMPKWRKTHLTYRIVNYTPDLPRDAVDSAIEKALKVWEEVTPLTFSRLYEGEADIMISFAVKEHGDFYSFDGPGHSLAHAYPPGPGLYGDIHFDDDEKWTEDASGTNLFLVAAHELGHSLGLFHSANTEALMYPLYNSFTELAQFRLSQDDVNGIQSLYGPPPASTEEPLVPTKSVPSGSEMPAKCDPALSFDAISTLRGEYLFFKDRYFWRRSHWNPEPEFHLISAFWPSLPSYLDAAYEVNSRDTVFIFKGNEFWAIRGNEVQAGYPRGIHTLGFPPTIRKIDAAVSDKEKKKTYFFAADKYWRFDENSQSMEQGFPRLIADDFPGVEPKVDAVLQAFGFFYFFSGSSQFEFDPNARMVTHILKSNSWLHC

In general, IC50 refers to the concentration needed to halve the response being measured. Higher therefore signals lower potency. On to `O=C(O)[C@H]1[C@H](Cn2nnc3ccccc3c2=O)CC[C@@H]1C(=O)c1ccc(-c2ccc(Cl)cc2)cc1` (racemic) [Comparative Example A-1, (1RS,2RS,5SR)-2-[(4′-chlorobiphenyl-4-yl)carbonyl]-5-[(4-oxo-1,2,3-benzotriazin-3(4H)-yl)methyl]cyclopentanecarboxylic acid (racemate)], for which the IC50 at MMP-14 was determined as 2.9 nM; on MMP-7, 310 nM; against MMP-10, 4.6 nM; on MMP-1, 0.22 µM.

As for `CCCCCOc1ccc(C(=O)CC(CCn2nnc3ccccc3c2=O)C(=O)O)cc1` (single isomer, unassigned; enantiomer 1) [Comparative Example B-2, (+)-4-Oxo-2-[2-(4-oxo-1,2,3-benzotriazin-3(4H)-yl)ethyl]-4-[4-(pentyloxy)phenyl]butanoic acid (enantiomer 1)], the IC50 at MMP-14 was 1300 nM; against MMP-7 it was 22500 nM; on MMP-10 it was 1900 nM; at MMP-1, > 40 µM.

Consider `CCCCCOc1ccc(C(=O)CC(CCn2nnc3ccccc3c2=O)C(=O)O)cc1` (racemic) [Comparative Example B-1, (+/−)-4-Oxo-2-[2-(4-oxo-1,2,3-benzotriazin-3(4H)-yl)ethyl]-4-[4-(pentyloxy)phenyl]butanoic acid (racemate)], for which the IC50 on MMP-14 is 3800 nM; on MMP-7, > 40000 nM; against MMP-10, 5700 nM; against MMP-1, > 40 µM.

In the case of `O=C(O)[C@@H]1[C@@H](Cn2nnc3ccccc3c2=O)CC[C@H]1C(=O)c1ccc(-c2ccc(Cl)cc2)cc1` (single isomer, unassigned; enantiomer 2) [Comparative Example A-3, (1RS,2RS,5SR)-2-[(4′-Chlorobiphenyl-4-yl)carbonyl]-5-[(4-oxo-1,2,3-benzotriazin-3(4H)-yl)methyl]cyclopentanecarboxylic acid (enantiomer 2)], the IC50 against MMP-14 was 1.2 nM; against MMP-7, 145 nM; against MMP-10 it was < 0.61 nM; against MMP-1, 0.135 µM.

Regarding `O=C(O)[C@H]1[C@H](Cn2nnc3ccccc3c2=O)CC[C@@H]1C(=O)c1ccc(OCc2ccccc2)cc1` [Example 2, (+)-(1S,2S,5R)-2-[4-(Benzyloxy)benzoyl]-5-[(4-oxo-1,2,3-benzotriazin-3(4H)-yl)methyl]cyclopentanecarboxylic acid], the 50% inhibitory concentration (IC50) on MMP-14 was determined as 15 nM; against MMP-7, 420 nM; at MMP-10, 17.5 nM; on MMP-1, 5.8 µM.

For the compound `O=C(O)[C@H]1[C@H](Cn2nnc3ccccc3c2=O)CC[C@@H]1C(=O)c1ccc(OCc2ccccc2)cc1` (racemic) [Example 1, (+/−)-(1RS,2RS,5SR)-2-[4-(Benzyloxy)benzoyl]-5-[(4-oxo-1,2,3-benzotriazin-3(4H)-yl)methyl]cyclopentanecarboxylic acid (racemate)], the IC50 against MMP-14 was determined as 27 nM; against MMP-7, 500 nM; against MMP-10, 21 nM; against MMP-1, 12 µM.
